US20230382869A1, “Phenyl-3,4-dihydroisoquinolin-2(1h)-yl-ethan-1-one derivatives as dopamine d1receptor positive allosteric modulators” (Eli Lilly and Company, priority 2020, published 2023)

Experiments:
CYP3A = assay: Intrinsic clearance CLint,CYP3A,liver; type: in vitro ADME; conditions: human
CYP3A4 = CYP3A4 (Homo sapiens (Human), UniProt P08684); assay: Recombinant CYP phenotyping assay (fmCYP3A4_RCP); type: in vitro ADME; conditions: not examined in RCP assay; worst case of 100% metabolized by CYP3A4 assumed
Method: The relative fraction of a compound's metabolism contributed by a given CYP, as for example CYP3A4, of the total P450 metabolism of the compound may be determined as follows:
A panel of 9 human recombinant CYPs (rCYPs) provided as Supersomes (BD Gentest, Woburn, MA), including rCYPs 1A2, 2B6, 2C8, 2C9, 2C19, 2D6, 2J2, 3A4, and 3A5, are evaluated for compound metabolism (see generally Cannady E A, et al. (2015) Evacetrapib: in vitro and clinical disposition, metabolism, excretion, and assessment of drug interaction potential with strong CYP3A and CYP2C8 inhibitors. Pharmacol Res Perspect 3:e00179). […]
in which kdep is the substrate depletion rate constant (min^−1), pmol rCYP is the lot-specific amount of rCYP in the incubation, and relative activity factor (RAF) is a relative activity factor (pmol/mg) appropriate for the rCYPs/HLMs pair. The rate constant is determined in-house by experiment, the slope determined using linear regression from the log transformed % remaining on the y-axis vs time on the x-axis (min^−1). pmol rCYP and RAF are vender supplied constenats for the supersome.
The fraction of CYP3A4-mediated metabolism (fmCYP3A4_RCP) is determined by dividing the HLM-scaled CLint of CYP3A4 by the sum of the HLM-scaled CL1nt for each P450 subtype assayed (Cannady et al., 2015).

[1] = Fraction of drug unbound in human liver microsomes (fumic); type: in vitro ADME
From the text: fumic is the fraction of drug unbound in human liver microsomes

human D1 receptor = human D1 receptor (Homo sapiens (Human), UniProt P21728); assay: Human D1 Receptor PAM Assay (cAMP HTRF, potentiator mode); type: cell-based
From the text: The PAM activity of the compounds of the present invention may be measured essentially as described in Svensson et al., An Allosteric Potentiator of the Dopamine D1 Receptor Increases Locomotor Activity in Human D1 Knock-in Mices without Casusing Stereotypy or Tachyphylaxis. J. Pharmacol. Exp. Ther. (2017) 360:117-128.
More specifically, HEK293 cells that stably express the human D1 receptor (Accession number NM_000794) are generated by gene transduction using the pBABE-bleo retroviral vector and selected with Zeocin™ (InvivoGen). At approximately 80% confluency, the cells are harvested using TrypLE™ Express (Gibco), suspended in FBS plus 8% DMSO, and stored in liquid nitrogen. On the day of the assay, cells are thawed and resuspended in STIM buffer (Hanks Balanced Salt Solution supplemented with 0.1% BSA, 20 mM HEPES, 500 μM IBMX, and 100 μM ascorbic acid).
Test compound is serially diluted (1:2) with DMSO into assay plates (ProxiPlate-384 Plus, PerkinElmer) using acoustic dispensing (Labcyte) to provide 20 concentrations for full response curves. Test compound (80 nL) is added to 5 μL STIM buffer containing 2000 cells, and 5 μL of a 2×concentration dopamine solution in STIM buffer that will generate an EC20 level response (24 nM in stock solution, or 12 nM final) and a final DMSO concentration in the well of 0.8%. Plates are incubated at room temperature for a total reaction time of 60 min.
cAMP production is quantified using HTRF® detection (Cisbio) according to the manufacturer's instructions. Generally, lysis buffer containing anti-cAMP cryptate (5 μL) and D2-conjugate (from HTRF® kit)(5 μL) is added to the wells, plates are incubated for an additional 60-90 min, and the time-resolved fluorescence is detected using an EnVision™ plate reader (PerkinElmer). Fluorescence data is converted to cAMP concentrations using a cAMP standard curve and analyzing using a 4-parameter non-linear logistic equation (Genedata Screener, version 13.0.5-standard). For potentiator mode concentration-response curves, results are expressed as percent of the window between a response at EC20 concentration of dopamine alone (normalized to 0%) and the maximum response to dopamine (defined by response to 5 μM dopamine, final concentration, normalized as 100%). Absolute EC50 values are calculated based on the maximum and minimum responses of the control agonist (dopamine). The % Potentiation (% Top) is determined from the fitted top of the concentration response curve.

[2] = Renal and biliary excretion in bile-duct cannulated dogs; type: in vivo, dog
Method: The renal and biliary excretion of test compounds is tested in bile-duct cannulated dogs essentially according to Burkey J L, et al. (2002) Disposition of LY333531, a selective protein kinase C beta inhibitor, in the Fischer 344 rat and beagle dog. Xenobiotica 32:1045-1052. The compound of Example 7 is tested essentially as described and its renal and biliary excretion is found to be negligible. The fraction of compound cleared through CYP3A4 metabolism is calculated using the equation below: […]

Chain of human D1 receptor (P21728 whole entry): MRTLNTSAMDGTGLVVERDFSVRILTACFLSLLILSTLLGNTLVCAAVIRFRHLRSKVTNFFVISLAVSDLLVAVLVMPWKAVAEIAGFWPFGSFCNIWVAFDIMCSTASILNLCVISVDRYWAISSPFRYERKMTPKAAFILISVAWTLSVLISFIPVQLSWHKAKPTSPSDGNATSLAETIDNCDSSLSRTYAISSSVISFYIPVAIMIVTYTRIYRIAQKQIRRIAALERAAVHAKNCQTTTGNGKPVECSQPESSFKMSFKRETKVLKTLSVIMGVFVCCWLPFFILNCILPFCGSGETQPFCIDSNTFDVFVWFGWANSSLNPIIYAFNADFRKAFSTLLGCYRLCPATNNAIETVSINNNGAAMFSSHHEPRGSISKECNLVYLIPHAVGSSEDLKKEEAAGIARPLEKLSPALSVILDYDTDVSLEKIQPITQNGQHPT

Which microsomal CLint (CYP3A) does the source give for `C[C@H]1c2ccc(F)c(CCC(C)(C)O)c2C[C@H](CO)N1C(=O)Cc1c(F)cccc1Cl` [Example 7, 2-(2-chloro-6-fluoro-phenyl)-1-[(1S,3R)-6-fluoro-3-(hydroxymethyl)-5-(3-hydroxy-3-methyl-butyl)-1-methyl-3,4-dihydro-1H-isoquinolin-2-yl]ethanone] here?
The microsomal CLint was 25.5 µL/min/mg.

And the fm3A4_RCP (CYP3A4)?
The fm3A4_RCP was 1.

And the fumic [1]?
Its fumic is 0.392.

What about the EC50 (human D1 receptor; HEK293 cells expressing human D1, with EC20 dopamine (12 nM final), cAMP, read-out: Abs EC50) of the same molecule?
Its EC50 is 10.2 ± 1.4 nM.

What about the “% Top (% Potentiation)” value (human D1 receptor; fitted top, 0% = EC20 dopamine alone, 100% = 5 μM dopamine) of the same molecule?
The value was 90.9%.

What about the “renal and biliary excretion” value [2] of the same molecule?
Its value is “negligible”.
